Experimental data: patent EP4775580A1, “COMPOUND, PHARMACEUTICAL COMPOSITION COMPRISING SAME, AND USE THEREOF” (Euregen Biopharma Co., Ltd., priority 2023, dated 2025)

Key:
[1] = biological target: T1, Menin-G331R (Homo sapiens, UniProt O00255, G326R); test: Fluorescence polarization assay of Menin binding to MLL peptide, G331R mutant; conditions: FP, 8 nM Menin, 4 nM MLL peptide
T1 sequence (O00255 1-615 isoform O00255-1 G331R): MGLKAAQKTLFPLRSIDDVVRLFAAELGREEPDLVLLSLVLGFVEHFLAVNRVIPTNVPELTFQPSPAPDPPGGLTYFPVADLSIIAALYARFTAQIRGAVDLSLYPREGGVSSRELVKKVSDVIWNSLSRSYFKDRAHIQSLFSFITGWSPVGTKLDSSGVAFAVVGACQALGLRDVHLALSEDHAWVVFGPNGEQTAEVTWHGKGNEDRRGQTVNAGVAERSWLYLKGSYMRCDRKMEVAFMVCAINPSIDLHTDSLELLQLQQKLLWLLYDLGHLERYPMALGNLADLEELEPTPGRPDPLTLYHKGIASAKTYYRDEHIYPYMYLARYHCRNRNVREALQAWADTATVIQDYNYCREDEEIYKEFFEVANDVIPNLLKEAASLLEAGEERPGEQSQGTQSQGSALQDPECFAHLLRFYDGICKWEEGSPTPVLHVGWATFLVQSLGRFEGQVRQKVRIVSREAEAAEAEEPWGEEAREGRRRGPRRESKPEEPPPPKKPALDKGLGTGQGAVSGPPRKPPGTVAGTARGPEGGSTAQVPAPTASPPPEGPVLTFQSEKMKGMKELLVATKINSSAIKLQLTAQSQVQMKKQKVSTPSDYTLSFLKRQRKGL
From the text: • 1. Objective: To evaluate the inhibitory activity of compounds against wild-type Menin protein (Menin-WT) and its mutant variants (Menin-M327V, Menin-M327I, Menin-T349M, Menin-S160T, Menin-S160C, Menin-G331R, and Menin-G331D). • 2. Experimental Principle: The experiment employed fluorescence polarization (FP) to detect the binding of wild-type Menin protein and its mutant variants to MLL peptide. In the absence of inhibitors, binding of wild-type Menin protein and its mutant variants to MLL peptide generates a high FP signal; upon addition of inhibitors, the binding between Menin proteins and MLL peptide is disrupted, resulting in a low FP signal. • 3. Experimental Materials: Final concentration of wild-type Menin protein and its mutant variants: 8 nM; final concentration of MLL peptide: 4 nM. Assay buffer: 50 mM Tris-HCl (pH 8.0), 120 mM NaCl, 0.005% CA-630, 2 mM DTT. • 4. […] The plate was centrifuged at 1000 rpm for 60 seconds. Subsequently, 10 µL of MLL peptide was added to each assay well. The plate was centrifuged at 1000 rpm for 60 seconds and sealed with a sealing membrane. After incubation at 23°C for 60 minutes, the plate was read using a PerkinElmer Envision reader. Data Analysis: [formula]
Curve fitting: XLFIT software was used for curve fitting, employing a four-parameter logistic model with percent inhibition versus log(compound concentration) as variables.

[2] = tested on: Molm-13 cells; test: Antiproliferative activity, CellTiter-Glo, 7 days (Test Example 2), Molm-13; type: cell-based; conditions: Homo sapiens, 168 h, 7 days incubation, read-out: MOLM13 IC50
From the text: (§1) [0134] 1. Experimental Principle: MV-4-11, Molm-13, and OCI-AML-3 cells are human hematologic tumor cell lines harboring the Menin-MLL fusion. HL-60 is a wild-type human hematologic tumor cell line without Menin-MLL fusion. […] 2. Experimental Materials: MV-4-11, Molm-13, OCI-AML-3, and HL-60 cells were all purchased from Cobioer; CellTiter-Glo® was purchased from Promega (Cat. #G7571); RPMI-1640 was purchased from Viva Cell (Cat. #C3010-0500); IMDM was purchased from Viva Cell (Cat. #C3040-0500); fetal bovine serum (FBS) was purchased from Biosera (Cat. #FB-1058/500); penicillin-streptomycin was purchased from BasalMedia (Cat. #S110JV); 0.25% Trypsin-EDTA was purchased from BasalMedia (Cat. #S310KJ); dimethyl sulfoxide (DMSO) was purchased from Sinopharm (Cat. #30072418); 96-well plates were purchased from Corning (Cat. #3610); incubator was obtained from PHCbi (Model: MCO-18AC); inverted microscope was obtained from Mingmei (Cat. #MI52-0); automated cell counter was obtained from BodBoge (Model: JSY-SC-031N); microplate reader was obtained from PerkinElmer (Model: Envision); data processing software: GraphPad Prism 8.0. 3. […] After incubation at room temperature for 10 minutes, luminescence values were read using the EnVision microplate reader, and IC50 values were calculated using GraphPad Prism 8.0 software. […]

[3] = tested on: OCI-AML-3 cells; test: Antiproliferative activity, CellTiter-Glo, 7 days (Test Example 2), OCI-AML-3; type: cell-based; conditions: Homo sapiens, 168 h, 7 days incubation, read-out: OCI-AML3 IC50
From the text: as §1

[4] = tested on: MV-4-11 subcutaneous tumor xenograft; test: In vivo efficacy in subcutaneous MV-4-11 tumor xenograft model; set-up: species or system female NOD/SCID mice; conditions: oral gavage once daily, tumor volume, Figure 1
From the text: • 1. Objective: To evaluate the in vivo efficacy of test compounds in a subcutaneous MV-4-11 tumor xenograft model in female NOD/SCID mice. • 2. Experimental Materials: The test compound was Compound 3 prepared according to the examples of the present invention; the positive control compound SNDX-5613 was purchased from Chengdu Zhihui Zhongxin Biomedical Co., Ltd.; MV-4-11 cells were purchased from Nanjing Cobioer; NOD/SCID mice were purchased from Beijing Vital River Laboratory Animal Technology Co., Ltd. • 3. Experimental Methods: Female NOD/SCID mice, 6-8 weeks of age, weighing 16-22 g, were used. MV-4-11 cells were cultured in IMDM medium supplemented with 20% fetal bovine serum. Cells in exponential growth phase were harvested, resuspended in phosphate-buffered saline, and prepared as a cell suspension at a density of 1 × 10^7 cells/0.1 mL. Cells were subcutaneously inoculated into the right dorsal neck region of each mouse (1 × 10^7 cells/mouse) with 50% Matrigel. When the mean tumor volume reached approximately 50-100 mm^3, mice were randomized and treatment was initiated by oral gavage administration once daily. Tumor diameters were measured twice weekly using digital calipers. Tumor volume was calculated using the formula: V = 0.5 × a × b^2, where a and b represent the longest and shortest tumor diameters, respectively.

Structure (SMILES)	IC50 [1] [nM]	IC50 [2] [nM]	IC50 [3] [nM]	efficacy in MV-4-11 subcutaneous tumor xenograft model [4]
CCN(C(=O)c1cc(F)ccc1Oc1cncnc1N1CC2(CCN(C[C@H]3CC[C@H](NS(=O)(=O)CC)CC3)CC2)C1)C(C)C [SNDX-5613, revumenib]	101	–	–	–
CCN(C(=O)c1cc(F)ccc1N1CCN([C@@H]2CCN([C@H](CCCN(C)CCOC)C(C)C)C2)c2ncncc21)C(C)C [Example 3]	36.7	26.7	103	superior efficacy compared to the positive control SNDX-5613
